Measured values published in ChEMBL document CHEMBL5143523, “Construction and activity evaluation of novel benzodioxane derivatives as dual-target antifungal inhibitors” (Eur J Med Chem, 2022).
Converted amounts (≈) assume the structure as drawn. The source made the active and inactive calls. No cut-off for these calls is given here.

Experiments:
Mus musculus [1] = assay: In vivo antifungal activity against Candida albicans ATCC SC5314 infected mouse model assessed as disappearance of pathogenic fungi at 4 mg/kg, ip administered ever other day for 12 days by hematoxyin-eosin staining based microscopic analysis; format: functional, organism-based; conditions: time 12.0 day
[2] = Hepatotoxicity in mouse infected with Candida albicans ATCC SC5314 assessed as change in plasma ALT level at 4 mg/kg, ip administered ever other day for 12 days; format: toxicity, organism-based; conditions: in vivo, 288 h, time 12 day
Aspergillus fumigatus = assay: Antifungal activity against Aspergillus fumigatus KM8001 assessed as fungal growth inhibition measured after 72 hrs by CLSI protocol based liquid medium dilution method; format: functional
Mus musculus [3] = assay: In vivo antifungal activity against Candida albicans ATCC SC5314 infected mouse assessed as regular arrangement of endothelial tissue at 4 mg/kg, ip administered ever other day for 12 days by hematoxyin-eosin staining based microscopic analysis; format: functional, organism-based; conditions: time 12.0 day
Candida albicans [4] = assay: Induction of morphological changes in Candida albicans assessed as appearance of edema cavitation at 4 ug/ml measured after 72 hrs by TEM analysis; format: functional, organism-based; conditions: dose 4.0 µg/ml
Candida tropicalis = assay: Antifungal activity against Candida tropicalis ATCC 1369 assessed as fungal growth inhibition measured after 72 hrs by CLSI protocol based liquid medium dilution method; format: functional
Candida albicans [5] = assay: Antifungal activity against Candida albicans ATCC 10231 assessed as fungal growth inhibition measured after 72 hrs by CLSI protocol based liquid medium dilution method; format: functional
Mus musculus [6] = assay: In vivo antifungal activity against Candida albicans ATCC SC5314 infected mouse assessed as reduction in fungal infection region at 4 mg/kg, ip administered ever other day for 12 days; format: functional, organism-based; conditions: time 12.0 day
Candida albicans [7] = assay: Antifungal activity against Candida albicans ATCC SC5314 assessed as change in unknown sterol level at 4 ug/ml incubated for 48 hrs by LC-MS analysis (reference value: 4.3%); format: functional; conditions: dose 4 µg/ml
[8] = Toxicity in mouse infected with Candida albicans ATCC SC5314 assessed as pathological changes in lung at 4 mg/kg, ip administered ever other day for 12 days by hematoxylin and eosin staining based histopathological analysis; format: organism-based; conditions: in vivo, 288 h, time 12 day
[9] = Toxicity in mouse infected with Candida albicans ATCC SC5314 assessed as pathological changes in liver at 4 mg/kg, ip administered ever other day for 12 days by hematoxylin and eosin staining based histopathological analysis; format: organism-based; conditions: in vivo, 288 h, time 12 day
Candida albicans [10] = assay: Induction of apoptosis in Candida albicans ATCC SC5314 cells assessed as live cells at 8 ug/ml incubated for 72 hrs by Annexin V-FITC/PI staining based flow cytometry method (reference value: 95.56%); format: functional; conditions: dose 8 µg/ml
Candida albicans [11] = assay: Antifungal activity against Candida albicans ATCC SC5314 assessed as decrease in ergosterol content at 4 ug/ml incubated for 48 hrs by LC-MS analysis (reference value: 90.6%); format: functional; set-up: scale not given: the % may be the effect or the level left; conditions: dose 4 µg/ml
Candida albicans [12] = assay: Induction of morphological changes in Candida albicans assessed as structural damage in fungal cell membrane at 4 ug/ml measured after 48 hrs by TEM analysis; format: functional, organism-based; conditions: dose 4.0 µg/ml
Mus musculus [13] = assay: In vivo antifungal activity against Candida albicans ATCC SC5314 infected mouse model assessed as regular arrangement of intercellular space at 4 mg/kg, ip administered ever other day for 12 days by hematoxyin-eosin staining based microscopic analysis; format: functional, organism-based; conditions: time 12.0 day
Squalene epoxidase ERG1 = target: T1, Squalene epoxidase ERG1 (Candida albicans, UniProt Q92206); assay: Inhibition of SE in Candida albicans ATCC SC5314 incubated for 30 mins using squalene as substrate in presence of NADPH by spectrophotometer analysis
T1 sequence (Q92206 whole entry): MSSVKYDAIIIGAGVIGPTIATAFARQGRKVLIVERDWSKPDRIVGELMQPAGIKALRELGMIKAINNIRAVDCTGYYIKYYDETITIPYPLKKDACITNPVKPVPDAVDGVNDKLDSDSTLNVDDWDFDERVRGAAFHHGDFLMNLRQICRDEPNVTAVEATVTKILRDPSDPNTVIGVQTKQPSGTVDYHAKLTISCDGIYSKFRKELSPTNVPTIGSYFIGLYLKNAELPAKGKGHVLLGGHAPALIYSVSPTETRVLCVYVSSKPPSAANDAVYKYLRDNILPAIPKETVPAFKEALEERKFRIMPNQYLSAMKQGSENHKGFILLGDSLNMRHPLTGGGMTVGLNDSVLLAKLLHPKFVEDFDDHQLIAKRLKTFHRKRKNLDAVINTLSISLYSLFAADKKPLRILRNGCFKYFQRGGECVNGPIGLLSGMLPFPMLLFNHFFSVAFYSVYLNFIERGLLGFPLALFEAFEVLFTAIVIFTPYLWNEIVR

Mus musculus [14] = assay: In vivo antifungal activity against Candida albicans ATCC SC5314 infected mouse assessed as increase in body weight at 4 mg/kg, ip administered ever other day for 12 days; format: functional, organism-based; conditions: time 12.0 day
[15] = Nephrotoxicity in mouse infected with Candida albicans ATCC SC5314 assessed as change in plasma BUN level at 4 mg/kg, ip administered ever other day for 12 days; format: toxicity, organism-based; conditions: in vivo, 288 h, time 12 day
[16] = Hepatotoxicity in mouse infected with Candida albicans ATCC SC5314 assessed as change in plasma AST level at 4 mg/kg, ip administered ever other day for 12 days; format: toxicity, organism-based; conditions: in vivo, 288 h, time 12 day
Candida albicans [17] = assay: Antifungal activity against fluconazole resistant Candida albicans strain 103 assessed as fungal growth inhibition measured after 72 hrs by CLSI protocol based liquid medium dilution method; format: functional
[18] = target: Lanosterol 14-alpha demethylase (Candida albicans (strain SC5314 / ATCC MYA-2876) (Yeast), UniProt P10613); assay: Inhibition of CYP51 in Candida albicans ATCC SC5314 incubated for 30 mins using eburicol as substrate in presence of NADPH by HPLC analysis
Candida albicans [19] = assay: Antifungal activity against Candida albicans ATCC SC5314 assessed as change in squalene level at 4 ug/ml incubated for 48 hrs by LC-MS analysis; format: functional; conditions: dose 4 µg/ml
Candida albicans [20] = assay: Induction of morphological changes in Candida albicans assessed as leakage of cellular contents at 4 ug/ml measured after 72 hrs by TEM analysis; format: functional, organism-based; conditions: dose 4.0 µg/ml
[21] = Drug uptake in fluconazole resistant Candida albicans strain 901 at 4 ug/ml by fluorescence microscopy; format: ADME; conditions: dose 4 µg/ml
Candida albicans [22] = assay: Antifungal activity against fluconazole resistant Candida albicans strain 901 assessed as decrease in fungal cell density at 4 ug/ml by fluorescence microscopy; format: functional, organism-based; conditions: dose 4.0 µg/ml
[23] = Toxicity in mouse infected with Candida albicans ATCC SC5314 assessed as pathological changes in heart at 4 mg/kg, ip administered ever other day for 12 days by hematoxylin and eosin staining based histopathological analysis; format: organism-based; conditions: in vivo, 288 h, time 12 day
Candida albicans [24] = assay: Induction of morphological changes in Candida albicans assessed as enlargement of nucleus at 4 ug/ml measured after 72 hrs by TEM analysis; format: functional, organism-based; conditions: dose 4.0 µg/ml
Nakaseomyces glabratus = assay: Antifungal activity against Candida glabrata ATCC 0001 assessed as fungal growth inhibition measured after 72 hrs by CLSI protocol based liquid medium dilution method; format: functional
[25] = Toxicity in mouse infected with Candida albicans ATCC SC5314 assessed as pathological changes in kidney at 4 mg/kg, ip administered ever other day for 12 days by hematoxylin and eosin staining based histopathological analysis; format: organism-based; conditions: in vivo, 288 h, time 12 day
Candida albicans [26] = assay: Antifungal activity against Candida albicans ATCC SC5314 assessed as change in eburicol level at 4 ug/ml incubated for 48 hrs by LC-MS analysis (reference value: 1.4%); format: functional; conditions: dose 4 µg/ml

Sequence of Lanosterol 14-alpha demethylase (P10613 whole entry): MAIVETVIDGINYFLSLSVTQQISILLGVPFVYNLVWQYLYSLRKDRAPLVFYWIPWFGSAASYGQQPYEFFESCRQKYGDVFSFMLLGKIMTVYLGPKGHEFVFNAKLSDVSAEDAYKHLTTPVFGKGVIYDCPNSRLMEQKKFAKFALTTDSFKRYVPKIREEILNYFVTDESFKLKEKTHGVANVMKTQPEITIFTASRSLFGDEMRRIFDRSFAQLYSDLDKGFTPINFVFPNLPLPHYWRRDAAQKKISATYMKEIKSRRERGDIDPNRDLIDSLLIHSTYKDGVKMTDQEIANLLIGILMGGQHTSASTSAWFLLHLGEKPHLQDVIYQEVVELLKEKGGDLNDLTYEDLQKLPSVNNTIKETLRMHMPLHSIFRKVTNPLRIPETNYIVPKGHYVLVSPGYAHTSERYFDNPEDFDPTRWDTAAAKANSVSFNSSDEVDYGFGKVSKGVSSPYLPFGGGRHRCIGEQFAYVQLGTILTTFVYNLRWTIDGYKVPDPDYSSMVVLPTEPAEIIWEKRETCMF

CC(C)[C@H](NC(=O)c1cccc2c1OCCO2)C(=O)N[C@@H](Cn1cncn1)c1ccccc1
Activity (Mus musculus [1]): Active
Activity [2]: 50.5 IU/L
MIC50 (Aspergillus fumigatus): 2 mg/L (≈ 4.45 µM)
Activity (Mus musculus [3]): Active
Activity (Candida albicans [4]): Active
MIC50 (Candida tropicalis): 0.125 mg/L (≈ 0.278 µM)
MIC50 (Candida albicans [5]): 0.125 mg/L (≈ 0.278 µM)
Activity (Mus musculus [6]): Active
Activity (Candida albicans [7]): 6.4%
Activity [8]: Non-Toxic
Activity [9]: Non-Toxic
Activity (Candida albicans [10]): 54.5%
Activity (Candida albicans [11]): 20.8%
Activity (Candida albicans [12]): Active
Activity (Mus musculus [13]): Active
IC50 (Squalene epoxidase ERG1): 0.621 µM
Activity (Mus musculus [14]): Active
Activity [15]: 15.8 mmol/L
Activity [16]: 85.5 IU/L
MIC50 (Candida albicans [17]): 0.5 mg/L (≈ 1.11 µM)
IC50 [18]: 0.22 µM
Activity (Candida albicans [19]): 27.5%
Activity (Candida albicans [20]): Active
Drug uptake [21]: Active
Activity (Candida albicans [22]): Active
Activity [23]: Non-Toxic
Activity (Candida albicans [24]): Active
MIC50 (Nakaseomyces glabratus): 0.25 mg/L (≈ 0.556 µM)
Activity [25]: Non-Toxic
Activity (Candida albicans [26]): 28.9%
